Patent US20160113936A1, “METHODS FOR MODULATING MONOCYTE FUNCTION” (Georgia Regents Research Institute, Inc., priority 2014, published 2016)

Key:
NCI 60-cell panel = conditions: read-out: Growth Inhibition of 50% (GI50); cited from earlier work
non-tumor cells = conditions: cited from earlier work
[1] = tested on: Hsp90 derived from transformed cells overexpressing HER-2; conditions: cited from earlier work
[2] = cited from earlier work
human Hsp90α = human Hsp90α (Homo sapiens, UniProt P07900); conditions: cited from earlier work
monocytic THP-1 cells [3] = assay: HSP70 protein levels in monocytic THP-1 cells (autoradiograph, FIG. 1); assay type: cell-based; conditions: β-actin as standard
Excerpt: FIG. 1 is an autoradiograph showing HSP70 levels in monocytic THP-1 cells treated with NVP-AUY922 or 17-DMAG. β-actin levels are shown as a standard.

[4] = in vivo; cited from earlier work
monocytic THP-1 cells [5] = assay: Pro-inflammatory cytokine protein expression (Table 1); assay type: cell-based; conditions: for IL-6 Protein Expression: Control 7.40; for IL-10 Protein Expression: Control 9.89; for IL-1β Protein Expression: Control 15.24; for IL-8 Protein Expression: Control 110.44; for TNF-α Protein Expression: Control 1611.19
mice with SCD = assay: LPS challenge in Townes sickle cell (SS) and AA mice treated with AUY922; assay type: in vivo, mouse
Experimental: FIG. 4 is a schematic diagram of an experimental procedure for assaying HSP90 inhibitors for the treatment SCD.
FIG. 5A is a bar graph of HSP70/GAPDH (relative units) for mice treated with phosphate buffered saline (PBS) or AUY922 (25 mg/Kg B.W.) daily for four days. FIG. 5B is a bar graph of HSP70/GAPDH (relative units) for mice treated with 0.1 μg/g B.W. of LPS or 0.1 μg/g B.W. of LPS plus AUY922 (25 mg/Kg B.W.).
Cytokine (ng/ml) for AA or SS mice treated with control, AUY, LPS, or LPS+AUY is shown.
Mouse Phenotype: B6;129-Hba^tm1(HBA)Tow Hbb^tm2(HBG1,HBB*)Tow/Hbb^tm3(HBG1,HBB)Tow/J
Entire Mouse Globin Locus Removed and Replace by Human Hemoglobin S or A.
AA, SS, & SA mice are available.

monocytic THP-1 cells [6] = assay: Pro-inflammatory cytokine gene expression by qRT-PCR (Table 1); assay type: cell-based; conditions: Control 1.0
Experimental: The major pro-inflammatory cytokines that are responsible for early inflammatory responses include IL1-α, IL1-β, IL-6, and TNF-α. […] Inflammatory cytokines and tissue factor gene expression were evaluated using quantitative real-time polymerase chain reaction (qRT-PCR). Amount of tissue factor was determined using a one stage clotting assay calibrated against a known amount of tissue factor (INNOVIN).

[7] = preclinical data; cited from earlier work
Hsp70 = conditions: cited from earlier work

With `C=CCNC1=C2C[C@@H](C)C[C@H](OC)[C@H](O)[C@@H](C)/C=C(\C)[C@H](OC(N)=O)[C@@H](OC)/C=C\C=C(/C)C(=O)NC(=CC1=O)C2=O` [17-AAG, 17-allylamino-17-demethoxygeldanamycin] as the compound, how does the GI50 (NCI 60-cell panel) read?
The GI50 was 0.12 µM.

What about the “toxicity toward non-tumor cells” value (non-tumor cells) of the same compound?
Its value is “low toxicity”.

What about the IC50 ([1]; Hsp90 from HER-2 overexpressing cells (BT474, N87, SKOV3, SKBR3) or BT474 breast carcinoma cells, read-out: 1050 values) of the same compound?
The IC50 was 0.005 to 0.006 µM.

What about the “higher affinity for Hsp90 derived from transformed cells” value ([1]; transformed cells overexpressing HER-2, comparator not printed (non-tumor cells are named just before)) of the same compound?
The value was “more than 100 ×”.

What does the source list for `CO[C@H]1/C=C\C=C(/C)C(=O)NC2=CC(=O)C(NCCN(C)C)=C(C[C@@H](C)C[C@H](OC)[C@H](O)[C@@H](C)/C=C(\C)[C@@H]1OC(N)=O)C2=O` [17-DMAG, 17-Dimethylaminoethylamino-17-demethoxygeldanamycin]?
water solubility [2]: water-soluble; binding to ATPase site of human Hsp90α (human Hsp90α): high affinity; HSP70 protein levels (monocytic THP-1 cells [3]): increases HSP70 protein levels; GI50 (NCI 60-cell panel): 0.051 µM; bioavailability [4]: excellent bioavailability

For `CCNC(=O)c1noc(-c2cc(C(C)C)c(O)cc2O)c1-c1ccc(CN2CCOCC2)cc1` [AUY922, 5-(2,4-dihydroxy-5-isopropylphenyl)-N-ethyl-4-(4-(morpholinomethyl)phenyl)isoxazole-3-carboxamide], which “IL-6 Protein Expression” value (monocytic THP-1 cells [5]; AUY922 alone) is on record?
Its value is 7.10.

And the “IL-10 Protein Expression” value (monocytic THP-1 cells [5]; AUY922 alone)?
Its value is 4.20.

What about the “IL-1β Protein Expression” value (monocytic THP-1 cells [5]; AUY922 alone) of the same compound?
Its value is 14.24.

What about the “IL-8 Protein Expression” value (monocytic THP-1 cells [5]; AUY922 alone) of the same compound?
The value was 130.61.

What about the “TNF-α Protein Expression” value (monocytic THP-1 cells [5]; AUY922 alone) of the same compound?
Its value is 1437.12.

What about the “IL-10 Protein Expression” value (monocytic THP-1 cells [5]; LPS + AUY922, LPS alone 41.18) of the same compound?
The value was 2.95.

And the “IL-6 Protein Expression” value (monocytic THP-1 cells [5]; LPS + AUY922, LPS alone 156.51)?
The value was 6.80.

What about the “IL-1β Protein Expression” value (monocytic THP-1 cells [5]; LPS + AUY922, LPS alone 775.64) of the same compound?
The value was 14.57.

What about the “IL-8 Protein Expression” value (monocytic THP-1 cells [5]; LPS + AUY922, LPS alone 839.99) of the same compound?
The value was 117.87.

What about the “TNF-α Protein Expression” value (monocytic THP-1 cells [5]; LPS + AUY922, LPS alone 4391.73) of the same compound?
Its value is 1587.49.

And the “inflammation in in vivo model system for SCD” value (mice with SCD; SS mice)?
Its value is “significant decrease in inflammation”.

And the “plasma levels of Il-1-Beta” value (mice with SCD; SS mice)?
Its value is “reduces plasma levels”.

What about the “plasma levels of TNF-alpha” value (mice with SCD; SS mice) of the same compound?
Its value is “reduces plasma levels”.

What about the “LPS-induced Il-6 response” value (mice with SCD; mice with SCD) of the same compound?
The value was “ablates the profound LPS-induced Il-6 response”.

What about the “endothelial cell activation (sVCAM)” value (mice with SCD; mice with SCD, PBS, AUY922, LPS or LPS+AUY) of the same compound?
The value was “blocks endothelial cell activation”.

And the HSP70/GAPDH pharmacodynamic response (mice with SCD; mice, AUY922 25 mg/Kg B.W. daily for four days, with or without LPS 0.1 μg/g B.W.)?
Its HSP70/GAPDH pharmacodynamic response is “meets pharmacodynamic requirements”.

And the “IL-1β Gene Expression (Fold)” value (monocytic THP-1 cells [6]; AUY922 alone)?
Its value is 0.9 Fold.

What about the “IL-6 Gene Expression (Fold)” value (monocytic THP-1 cells [6]; AUY922 alone) of the same compound?
The value was 1.2 Fold.

And the “IL-8 Gene Expression (Fold)” value (monocytic THP-1 cells [6]; AUY922 alone)?
Its value is 1.0 Fold.

What about the “IL-10 Gene Expression (Fold)” value (monocytic THP-1 cells [6]; AUY922 alone) of the same compound?
Its value is 30.2 Fold.

What about the “TNF-α Gene Expression (Fold)” value (monocytic THP-1 cells [6]; AUY922 alone) of the same compound?
The value was 0.8 Fold.

And the “TNF-α Gene Expression (Fold)” value (monocytic THP-1 cells [6]; LPS + AUY922, LPS alone 7.1)?
Its value is 6.2 Fold.

What about the “IL-6 Gene Expression (Fold)” value (monocytic THP-1 cells [6]; LPS + AUY922, LPS alone 42.5) of the same compound?
Its value is 3.25 Fold.

And the “IL-8 Gene Expression (Fold)” value (monocytic THP-1 cells [6]; LPS + AUY922, LPS alone 235.5)?
Its value is 795.5 Fold.

And the “IL-10 Gene Expression (Fold)” value (monocytic THP-1 cells [6]; LPS + AUY922, LPS alone 350.4)?
Its value is 200.1 Fold.

What about the “IL-1β Gene Expression (Fold)” value (monocytic THP-1 cells [6]; LPS + AUY922, LPS alone 1950) of the same compound?
The value was 20 Fold.

What about the HSP70 protein levels (monocytic THP-1 cells [3]) of the same compound?
The HSP70 protein levels was “increases HSP70 protein levels”.

Which “cardiac or liver toxicity” value [7] does the source give for `CC(C)c1cc(-c2n[nH]c(=O)n2-c2ccc3c(ccn3C)c2)c(O)cc1O` [Ganetespib] here?
The value was “no evidence of cardiac or liver toxicity”.

And the Hsp70 expression (Hsp70)?
Its Hsp70 expression is “induces the overexpression of Hsp70”.

For `C=CCNc1c(O)cc2c(O)c1C[C@@H](C)C[C@H](OC)[C@H](O)[C@@H](C)/C=C(\C)[C@H](OC(N)=O)[C@@H](OC)/C=C\C=C(/C)C(=O)N2.Cl` [IPI-504, Retaspimycin hydrochloride], which water solubility [2] is on record?
The water solubility was “water-soluble”.

What about the bioavailability [4] of the same compound?
Its bioavailability is “excellent bioavailability”.
